Source: patent US20180106727A1, “ULTRA-HIGH-SENSITIVE ASSAY OF PROTEIN AND NUCLEIC ACID AND KIT, AND NOVEL ENZYME SUBSTRATE” (priority 2011, published 2018)
Where two headings read alike, the source gives them in different places.

Experiments:
[1] = biological target: β-galactosidase (Escherichia coli, UniProt P00722); details: β-Gal assay
Method: 0.1 M pyrophosphate buffer solution (pH 9.0); 1.2 mM thio-NAD; 3.6 mM NADH; 40 U/mL 3α-hydroxysteroid dehydrogenase
To a flat-bottomed microplate well, 25 μL of a phosphate buffer solution (pH 7.3) containing the standard substance (β-galactosidase) in a range of 0 to 200 pg/ml was added, and subsequently, 25 μL of Reaction Test Solution A was added to the well, respectively. The reaction solution was mixed, and the microplate was incubated at 37° C. for 60 minutes. Then, 50 μL of Reaction Test Solution B was added to each well, respectively, and the absorbance was measured for 30 minutes using a 405 nm filter with a microplate reader (MTP-500 manufactured by CORONA CORPORATION) while warming the microplate to 37° C. The amount of the absorbance change for 30 minutes was plotted with respect to the concentrations of the standard substance.
To a flat-bottomed microplate well, 50 μL of a phosphate buffer solution (pH 7.7) containing the standard substance (β-galactosidase) in a range of 0 to 250 pg/ml was added, and subsequently, 50 μL of Reaction Test Solution was added to each well, respectively. The absorbance was measured for 120 minutes using a 405 nm filter with a microplate reader (MTP-500 manufactured by CORONA CORPORATION) while warming the microplate to 37° C. The amount of the absorbance change for 120 minutes was plotted with respect to the concentrations of the standard substance.
0.1 M pyrophosphate buffer solution (pH 9.0); 4.8 mM thio-NAD; 0.4 mM NADH; 40 U/mL 3α-hydroxysteroid dehydrogenase
To a flat-bottomed microplate well, 25 μL of a phosphate buffer solution (pH 7.5) containing the standard substance (β-galactosidase) in a range of 0 to 200 pg/mL was added, and subsequently, 25 μL of Reaction Test Solution A was added to the well, respectively. The reaction solution was mixed, and the microplate was incubated at 37° C. for 60 minutes. Then, 50 μL of Reaction Test Solution B was added to each well, respectively, and the absorbance was measured for 30 minutes using a 405 nm filter with a microplate reader (MTP-500 manufactured by CORONA CORPORATION) while warming the microplate to 37° C. The amount of the absorbance change for 30 minutes was plotted with respect to the concentrations of the standard substance.
0.1 M pyrophosphate buffer solution (pH 9.8); 1.2 mM thio-NAD; 1 mM NADH; 40 U/mL 3α-hydroxysteroid dehydrogenase
To a flat-bottomed microplate well, 25 μL of a phosphate buffer solution (pH 7.5) containing the standard substance (β-galactosidase) in a range of 0 to 200 pg/mL was added, and subsequently, 25 μL of Reaction Test Solution A was added to the well, respectively. The reaction solution was mixed, and the microplate was incubated at 37° C. for 60 minutes.

[2] = system: 3α-hydroxysteroid dehydrogenase; assay: Rotation numbers of thio-NAD cycling reactions with 3α-hydroxyandrostanes; assay type: biochemical
Method: The cycling system using thio-NAD(P) in the enzymatic cycling system is a unique cycling system that appeared relatively recently. With this system, the cycling is performed that is, thio-NAD(P)/thio-NAD(P)H using dehydrogenase (DH) with NAD(P)/NAD(P)H as a co-enzyme under conditions of coexistence of NAD(P)/NAD(P)H and its analog, and the amplification and the quantification are performed with thio-NAD(P)H (maximum absorption wavelength: 400 nm, molar absorption coefficient=11,900) as a substrate of dehydrogenase. The principle for measurement of the thio-NAD(P)cycling system is as described below.

[3] = system: 3α-hydroxysteroid dehydrogenase; assay: Dehydrogenation reaction of androsterone, reaction rate with thio-NAD versus NAD as co-enzyme; assay type: biochemical
Excerpt: The substrate for the cycling is preferably those having fast enzyme reaction rate (having high activity for the substrate) and reacting even at a low concentration (having low Km value). In addition, a desirable property as the dehydrogenase is the reaction rate when using thio-NAD(P) as a co-enzyme. In the dehydrogenation reaction of androsterone by other many dehydrogenases, the reaction rate when thio-NAD is used as a co-enzyme is within several % of the reaction rate when NAD is used, while with 3α-hydroxysteroid dehydrogenase, the reaction rate with thio-NAD is about 59% of the reaction rate with NAD. Thus, 3α-hydroxysteroid dehydrogenase has a desirable property as the cycling enzyme of the present invention. Furthermore, widely used alkaline phosphatase (ALP) can be used as the labeling enzyme to be combined, and the combination with alkaline phosphatase is preferable also in a point of easy synthesis of a phosphate ester of an androsterone derivative at the position 3 that is a substrate of alkaline phosphatase.

[4] = conventional substrate, no cycling method printed
[5] = relative to 5α-Androsterone = 100
[6] = thio-NAD cycling, compound as substrate

Chain of β-galactosidase (P00722 2-1024): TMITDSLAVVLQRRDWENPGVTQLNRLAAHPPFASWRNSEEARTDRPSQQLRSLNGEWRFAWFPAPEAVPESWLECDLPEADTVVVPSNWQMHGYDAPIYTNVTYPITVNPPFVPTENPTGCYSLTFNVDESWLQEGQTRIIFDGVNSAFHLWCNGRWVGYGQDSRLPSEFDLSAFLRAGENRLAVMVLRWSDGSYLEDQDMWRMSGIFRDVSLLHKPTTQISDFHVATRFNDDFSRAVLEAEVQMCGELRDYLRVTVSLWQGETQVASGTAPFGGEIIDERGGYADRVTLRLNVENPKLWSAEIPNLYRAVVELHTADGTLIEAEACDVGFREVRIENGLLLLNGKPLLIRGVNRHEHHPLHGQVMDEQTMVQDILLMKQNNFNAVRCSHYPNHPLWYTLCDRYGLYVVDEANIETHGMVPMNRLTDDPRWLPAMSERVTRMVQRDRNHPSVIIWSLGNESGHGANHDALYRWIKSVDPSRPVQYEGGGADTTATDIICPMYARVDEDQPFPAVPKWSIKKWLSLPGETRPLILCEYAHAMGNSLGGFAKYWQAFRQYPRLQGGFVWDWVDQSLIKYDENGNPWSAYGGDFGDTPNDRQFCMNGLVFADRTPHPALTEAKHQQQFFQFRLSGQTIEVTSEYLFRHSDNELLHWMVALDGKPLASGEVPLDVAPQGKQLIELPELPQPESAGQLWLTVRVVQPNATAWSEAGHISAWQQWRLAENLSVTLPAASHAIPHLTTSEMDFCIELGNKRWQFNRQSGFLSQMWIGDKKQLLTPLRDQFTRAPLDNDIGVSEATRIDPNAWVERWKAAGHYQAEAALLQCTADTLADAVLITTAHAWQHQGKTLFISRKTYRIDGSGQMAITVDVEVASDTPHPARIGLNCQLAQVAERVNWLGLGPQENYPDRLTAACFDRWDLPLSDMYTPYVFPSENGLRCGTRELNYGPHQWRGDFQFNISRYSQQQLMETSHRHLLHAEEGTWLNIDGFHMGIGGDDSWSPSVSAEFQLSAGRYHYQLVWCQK

**Q.** Which results are given for Cc1cc(=O)oc2cc(O[C@@H]3O[C@H](CO)[C@H](O)[C@H](O)[C@H]3O)ccc12 [4-MUG, reference compound]?
**A.** Detection limit [1, 4]: 9.76e-18 mol; Quantification limit [1, 4]: 3.25e-17 mol

**Q.** Which “Rotation number, Relative value (%)” value [2, 5] does the source give for C=C1CC[C@H]2[C@@H]3CC[C@H]4C[C@H](O)CC[C@]4(C)[C@H]3CC[C@]12C [5α-17-CH2, 3α-Hydroxy-17-methylene-5α-Androstane] here?
**A.** 49%

**Q.** And the “Rotation number of cycling reaction” value [2, 6]?
**A.** 308 Cycle/min

**Q.** Which results are given for C[C@H]1CC[C@H]2[C@@H]3CC[C@H]4C[C@H](O)CC[C@]4(C)[C@H]3CC[C@]12C [5α-17-CH3, 3α-Hydroxy-17β-methyl-5α-Androstane]?
**A.** Rotation number, Relative value (%) [2, 5]: 32%; Rotation number of cycling reaction [2, 6]: 200 Cycle/min

**Q.** How did the “Rotation number, Relative value (%)” value [2, 5] turn out when C[C@@]12CCC[C@H]1[C@@H]1CC[C@H]3C[C@H](O)CC[C@]3(C)[C@H]1CC2 [5α-17-deoxo, 3α-Hydroxy-5α-Androstane] was run?
**A.** 39%

**Q.** What about the “Rotation number of cycling reaction” value [2, 6] of the same compound?
**A.** 241 Cycle/min

**Q.** With C[C@]12CC[C@@H](O[C@@H]3O[C@H](CO)[C@H](O)[C@H](O)[C@H]3O)C[C@@H]1CC[C@@H]1[C@@H]2CC[C@]2(C)C(=O)CC[C@@H]12 [5α-AG, 5α-androsterone 3-β-galactoside] as the compound, how does the Detection limit ([1]; Two-steps) read?
**A.** 3.89e-19 mol

**Q.** What about the Quantification limit ([1]; Two-steps) of the same compound?
**A.** 1.3e-18 mol

**Q.** With C[C@]12CC[C@@H](O)C[C@@H]1CC[C@@H]1[C@@H]2CC[C@]2(C)C(=O)CC[C@@H]12 [5α-Androsterone, reference compound] as the compound, how does the “Rotation number, Relative value (%)” value [2] read?
**A.** 100%

**Q.** What does the source list for C[C@]12CCC(=O)C[C@@H]1CC[C@@H]1[C@@H]2CC[C@]2(C)[C@@H](O)CC[C@@H]12 [5α-DHT, 5α-Dihydrotestosterone, reference compound]?
**A.** Rotation number of cycling reaction [2]: 535 Cycle/min; Rotation number, Relative value (%) [2]: 86%

**Q.** With C[C@H]1CC[C@H]2[C@@H]3CC[C@@H]4C[C@H](O)CC[C@]4(C)[C@H]3CC[C@]12C [5β-17-CH3, 3α-Hydroxy-17β-methyl-5β-Androstane] as the compound, how does the “Rotation number, Relative value (%)” value [2, 5] read?
**A.** 18%

**Q.** What about the “Rotation number of cycling reaction” value [2, 6] of the same compound?
**A.** 114 Cycle/min

**Q.** Which results are given for CO[C@H]1CC[C@H]2[C@@H]3CC[C@@H]4C[C@H](O)CC[C@]4(C)[C@H]3CC[C@]12C [5β-17β-OCH3]?
**A.** Rotation number, Relative value (%) [2, 5]: 74%; Rotation number of cycling reaction [2, 6]: 458 Cycle/min

**Q.** How did the Detection limit ([1]; One-step) turn out when C[C@]12CC[C@@H](O[C@@H]3O[C@H](CO)[C@H](O)[C@H](O)[C@H]3O)C[C@H]1CC[C@@H]1[C@@H]2CC[C@]2(C)C(=O)CC[C@@H]12 [5β-AG, 5β-Androsterone-3β-D-Galactoside] was run?
**A.** 3.31e-19 mol

**Q.** What about the Quantification limit ([1]; One-step) of the same compound?
**A.** 1.1e-18 mol

**Q.** What about the Detection limit ([1]; Two-steps) of the same compound?
**A.** 7.48e-20 mol

**Q.** What about the Quantification limit ([1]; Two-steps) of the same compound?
**A.** 2.49e-19 mol

**Q.** Which “Rotation number of cycling reaction” value [2] does the source give for C[C@]12CC[C@@H](O)C[C@H]1CC[C@@H]1[C@@H]2CC[C@]2(C)C(=O)CC[C@@H]12 [5β-Androsterone, reference compound] here?
**A.** 384 Cycle/min

**Q.** What about the “Rotation number, Relative value (%)” value [2] of the same compound?
**A.** 62%

**Q.** CO[C@H]1CC[C@H]2[C@@H]3CC[C@@H]4C[C@H](O[C@@H]5O[C@H](CO)[C@H](O)[C@H](O)[C@H]5O)CC[C@]4(C)[C@H]3CC[C@]12C [17-OMe 5β-AG] was tested. Which Detection limit ([1]; One-step) did it give?
**A.** 3.21e-19 mol

**Q.** What about the Quantification limit ([1]; One-step) of the same compound?
**A.** 1.07e-18 mol

**Q.** What about the Detection limit ([1]; Two-steps) of the same compound?
**A.** 1.09e-19 mol

**Q.** What about the Quantification limit ([1]; Two-steps) of the same compound?
**A.** 3.64e-19 mol

**Q.** How did the “Rotation number, Relative value (%)” value [2, 5] turn out when C[C@H](CCC(=O)NCC(=O)O)[C@H]1CC[C@H]2[C@@H]3[C@H](O)C[C@@H]4C[C@H](O)CC[C@]4(C)[C@H]3CC[C@]12C [Glycochenodeoxycholate, Sodium glycochenodoxycholate, reference compound] was run?
**A.** 21%

**Q.** And the “Rotation number of cycling reaction” value [2, 6]?
**A.** 129 Cycle/min

**Q.** For O=[N+]([O-])c1ccccc1O[C@@H]1O[C@H](CO)[C@H](O)[C@H](O)[C@H]1O [ONPG, o-Nitrophenyl β-D-Galactopyranoside, reference compound], which Detection limit [1, 4] is on record?
**A.** 4.5e-17 mol

**Q.** And the Quantification limit [1, 4]?
**A.** 1.5e-16 mol

**Q.** Which “Effect of the substrate on the cycling reaction” value [2] does the source give for C[C@]12CC[C@@H](OP(=O)(O)O)C[C@@H]1CC[C@@H]1[C@@H]2CC[C@]2(C)C(=O)CC[C@@H]12 [androsterone 3-phosphate, reference compound] here?
**A.** inhibition of the substrate on the cycling reaction

**Q.** For NC(=S)c1ccc[n+]([C@@H]2O[C@H](COP(=O)([O-])OP(=O)(O)OC[C@H]3O[C@@H](n4cnc5c(N)ncnc54)[C@H](O)[C@@H]3O)[C@@H](O)[C@H]2O)c1 [thio-NAD], which “Reaction rate with thio-NAD relative to the reaction rate with NAD” value [3] is on record?
**A.** about 59%
